For 17 compounds, inhibition results are on record in patent US5686486A, “4-hydroxy-benzopyran-2-ones and 4-hydroxy-cycloalkyl[b]pyran-2-ones useful to treat retroviral infections” (priority 1995, dated 1997).

The structures appear in SMILES notation. Read-outs that look alike come from different tables or passages of the source.

This experiment has as its target HIV-1 protease (Human immunodeficiency virus type 1 group M subtype B, UniProt P04585). The experiment in a line: biochemical. An outline of the steps:
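Biotinylated, FITC-labeled peptide substrate (20 μl of 0.2 μM) incubated with HIV-1 protease (10 μl of 0.1 μM) and compound in 0.1 M sodium acetate pH 5.5, 1.0 M NaCl, 0.05% NP-40, 1 h, room temperature, dark. Streptavidin beads then capture uncleaved substrate; filtered labeled product read by fluorescence, giving percent inhibition.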

[1] abbreviates: read-out: HIV-1 Protease % Inhib, dose 0.123 uM.
[2] abbreviates: read-out: HIV-1 Protease % Inhib, dose 0.370 uM.
The mark [3] stands for this setting: read-out: HIV-1 Protease % Inhib, dose 1.100 uM.
The mark [4] stands for this setting: read-out: HIV-1 Protease % Inhib, dose 3.300 uM.
Setting [5] is: read-out: HIV-1 Protease % Inhib, dose 10.000 uM.
[6] abbreviates: read-out: HIV-1 Protease % Inhib, dose 30.000 uM.
Setting [7] is: dose 1.100 uM, read-out: HIV-1 Protease % Inhib.
Setting [8] is: dose 3.300 uM, read-out: HIV-1 Protease % Inhib.
Where [9] appears, read: dose 10.000 uM, read-out: HIV-1 Protease % Inhib.
The mark [10] stands for this setting: dose 30.000 uM, read-out: HIV-1 Protease % Inhib.
Setting [11] is: dose 0.370 uM, read-out: HIV-1 Protease % Inhib.

On to `Nc1ccc(S(=O)(=O)Nc2cccc(C(c3c(O)c4c(oc3=O)CCCCCC4)C3CC3)c2)cc1` (centres unmarked) [Example 348 (First Title Compound), 4-Amino-N-[3-[cyclopropyl(5,6,7,8,9,10-hexahydro-4-hydroxy-2-oxo-2H-cycloocta[b]pyran-3-yl)methyl]phenyl]-benzenesulfonamide], for which the inhibition at 0.123 µM under setting [1] is 28.1%. Also, under setting [2], the inhibition at 0.37 µM was found to be 80.7%. Besides, the inhibition at 1.1 µM under setting [3] worked out at 103%. Moreover, the inhibition at 3.3 µM under setting [4] was 108%. The inhibition at 10 µM under setting [5] is 113%. Further, the inhibition at 30 µM under setting [6] is 109%.

For the compound `C=CS(=O)(=O)Nc1cccc(C(c2c(O)c3c(oc2=O)CCCCC3)C2CC2)c1` (centres unmarked) [Example 363, N-[3-[Cyclopropyl(2,5,6,7,8,9-hexahydro-4-hydroxy-2-oxocyclohepta[b]pyran-3-yl)methyl]phenyl]-ethenesulfonamide], the inhibition at 1.1 µM under setting [7] amounted to 21.5%. Besides, under setting [8], the inhibition at 3.3 µM came to 58.8%. Also, under setting [9], the inhibition at 10 µM was determined as 84.8%. Also, the inhibition at 30 µM under setting [10] came out at 107%.

Take `CCS(=O)(=O)Nc1cccc(C(c2c(O)c3c(oc2=O)CCCCC3)C2CC2)c1` (centres unmarked) [Example 365, N-[3-[Cyclopropyl(2,5,6,7,8,9-hexahydro-4-hydroxy-2-oxocyclohepta[b]pyran-3-yl)methyl]phenyl]-ethanesulfonamide]: the inhibition at 0.123 µM under setting [1] worked out at 11.7%. Also, the inhibition at 0.37 µM under setting [2] came to 31.1%. Under setting [3], the inhibition at 1.1 µM came out at 65.3%. Besides, the inhibition at 3.3 µM under setting [4] was determined as 84.1%. Moreover, under setting [5], the inhibition at 10 µM is 94.5%. In addition, the inhibition at 30 µM under setting [6] stood at 95.8%.

In the case of `O=c1oc2c(c(O)c1C(c1cccc(N3CCCS3(=O)=O)c1)C1CC1)CCCCCC2` [Example 365B (First Title Compound), 2H-Cycloocta[b]pyran-2-one, 3-[cyclopropyl[3-(2-isothiazolidinyl)phenyl]methyl]-5,6,7,8,9,10-hexahydro-4-hydroxy-,S,S-dioxide], under setting [9], the inhibition at 10 µM was determined as 83.8%. For the same compound, the inhibition at 30 µM under setting [10] came to 78.8%.

`O=c1oc2c(c(O)c1C(c1cccc(NS(=O)(=O)CCCN3CCOCC3)c1)C1CC1)CCCCCC2` (centres unmarked) [Example 365B (Second Title Compound), N-[3-[Cyclopropyl(5,6,7,8,9,10-hexahydro-4-hydroxy-2-oxo-2H-cycloocta[b]pyran-3-yl)methyl]phenyl]-4-morpholinepropanesulfonamide]: the inhibition at 0.123 µM (dose 0.123 uM, read-out: HIV-1 Protease % Inhib) amounted to 33.2%. In addition, the inhibition at 0.37 µM under setting [11] was determined as 68.2%. For the same compound, the inhibition at 1.1 µM under setting [7] stood at 94%. In addition, the inhibition at 3.3 µM under setting [8] was determined as 87.3%. In addition, under setting [9], the inhibition at 10 µM came out at 92.6%. In addition, the inhibition at 30 µM under setting [10] worked out at 89.1%.

As for `O=c1oc2c(c(O)c1C(c1cccc(NC(=S)Nc3ccccc3)c1)C1CC1)CCCCCC2` (centres unmarked) [Example 366, Thiourea, N-[3-[cyclopropyl(5,6,7,8,9,10-hexahydro-4-hydroxy-2-oxo-2H-cycloocta[b]pyran-3-yl)methyl]phenyl]-N'-phenyl-], the inhibition at 1.1 µM under setting [7] was 40.3%. The inhibition at 3.3 µM under setting [8] came to 72.9%. In addition, the inhibition at 10 µM under setting [9] was 92.2%. The inhibition at 30 µM under setting [10] was determined as 107%.

Turning to `CCNC(=S)Nc1cccc(C(c2c(O)c3c(oc2=O)CCCCCC3)C2CC2)c1` (centres unmarked) [Example 367, Thiourea, N-[3-[cyclopropyl(5,6,7,8,9,10-hexahydro-4-hydroxy-2-oxo-2H-cycloocta[b]pyran-3-yl)methyl]phenyl]-N'-ethyl-], under setting [7], the inhibition at 1.1 µM came out at 23.7%. Also, the inhibition at 3.3 µM under setting [8] came out at 58.5%. Besides, the inhibition at 10 µM under setting [9] was found to be 86.1%. Besides, the inhibition at 30 µM under setting [10] was 102%.

For the compound `O=c1oc2c(c(O)c1C(c1cccc(NC(=S)Cc3ccccc3)c1)C1CC1)CCCCCC2` (centres unmarked) [Example 368, Benzeneethanethioamide, N-[3-[cyclopropyl(5,6,7,8,9,10-hexahydro-4-hydroxy-2-oxo-2H-cycloocta[b]pyran-3-yl)methyl]phenyl]-], the inhibition at 1.1 µM under setting [7] came out at 17.4%. Also, the inhibition at 3.3 µM under setting [8] came out at 54.5%. The inhibition at 10 µM under setting [9] was found to be 77.8%. Besides, the inhibition at 30 µM under setting [10] amounted to 86.8%.

`CC(C)C(c1cccc(NC(=O)OCc2ccccc2)c1)c1c(O)c2c(oc1=O)CCCCCC2` (centres unmarked) [Example 370, [3-[1-(5,6,7,8,9,10-Hexahydro-4-hydroxy-2-oxo-2H-cycloocta[b]pyran-3-yl)-2-methylpropyl]phenyl]-carbamic acid, phenylmethyl ester]: the inhibition at 10 µM under setting [9] is 19.4%. For the same compound, the inhibition at 30 µM under setting [10] came out at 33.1%.

As to `CC(C)C(c1cccc(NS(=O)(=O)c2ccc(C#N)cc2)c1)c1c(O)c2c(oc1=O)CCCCCC2` (centres unmarked) [Example 372, 4-Cyano-N-[3-[1-(6,7,8,9,10-hexahydro-4-hydroxy-2-oxo-2H-cycloocta[b]pyran-3-yl)-2-methylpropyl]phenyl]-benzenesulfonamide], under setting [1], the inhibition at 0.123 µM stood at 65.3%. For the same compound, under setting [2], the inhibition at 0.37 µM worked out at 91.3%. Moreover, the inhibition at 1.1 µM under setting [3] is 105%. In addition, the inhibition at 3.3 µM under setting [4] is 108%. Also, the inhibition at 10 µM under setting [5] came to 109%. The inhibition at 30 µM under setting [6] is 106%.

Take `CCCC(c1cccc(NC(=O)OCc2ccccc2)c1)c1c(O)c2c(oc1=O)CCCCCC2` (centres unmarked) [Example 375, [3-[1-(5,6,7,8,9,10-Hexahydro-4-hydroxy-2-oxo-2H-cycloocta[b]pyran-3-yl)butyl]phenyl]-carbamic acid, phenylmethyl ester]: under setting [11], the inhibition at 0.37 µM turned out to be 10.2%. Also, under setting [7], the inhibition at 1.1 µM stood at 28.5%. Moreover, under setting [8], the inhibition at 3.3 µM was 57.4%. Further, the inhibition at 10 µM under setting [9] worked out at 79%. For the same compound, the inhibition at 30 µM under setting [10] stood at 86%.

Turning to `O=c1oc2c(c(O)c1C(c1ccc(CO)o1)C1CC1)CCCCCC2` (centres unmarked) [Example 383], under setting [7], the inhibition at 1.1 µM was 28.9%. Besides, the inhibition at 3.3 µM under setting [8] worked out at 73%. Further, the inhibition at 10 µM under setting [9] is 90.2%. Moreover, the inhibition at 30 µM under setting [10] came out at 94.6%.

In the case of `COCOCc1ccc(C(c2c(O)c3c(oc2=O)CCCCCC3)C2CC2)o1` (centres unmarked) [Example 386], under setting [7], the inhibition at 1.1 µM turned out to be 14.3%. Further, under setting [8], the inhibition at 3.3 µM turned out to be 35.4%. Besides, the inhibition at 10 µM under setting [9] is 64.5%. Also, under setting [10], the inhibition at 30 µM worked out at 96.3%.

`O=c1oc2c(c(O)c1C(c1ccc(CNS(=O)(=O)c3ccc(F)cc3)o1)C1CC1)CCCCCC2` (centres unmarked) [Example 390]: the inhibition at 1.1 µM under setting [7] came out at 13.1%. The inhibition at 3.3 µM under setting [8] was found to be 43.6%. In addition, the inhibition at 10 µM under setting [9] was found to be 66.4%. Moreover, the inhibition at 30 µM under setting [10] amounted to 85.2%.

For `N#Cc1ccc(S(=O)(=O)NCc2ccc(C(c3c(O)c4c(oc3=O)CCCCCC4)C3CC3)o2)cc1` (centres unmarked) [Example 391], the inhibition at 3.3 µM under setting [8] was 28.3%. Also, the inhibition at 10 µM under setting [9] turned out to be 59.1%. Moreover, the inhibition at 30 µM under setting [10] was 84.2%.

In the case of `N#Cc1ccc(S(=O)(=O)NCc2ccc(C(c3c(O)c4c(oc3=O)CCCCCC4)C3CC3)s2)cc1` (centres unmarked) [Example 392], the inhibition at 1.1 µM under setting [7] was determined as 11.5%. Besides, the inhibition at 3.3 µM under setting [8] amounted to 47%. For the same compound, the inhibition at 10 µM under setting [9] worked out at 77.6%. For the same compound, the inhibition at 30 µM under setting [10] came to 99.7%.

On to `O=c1oc2c(c(O)c1C(c1ccc(CNS(=O)(=O)c3ccc(F)cc3)s1)C1CC1)CCCCCC2` (centres unmarked) [Example 393], for which the inhibition at 3.3 µM under setting [8] came to 37.5%. The inhibition at 10 µM under setting [9] worked out at 66.3%. Besides, the inhibition at 30 µM under setting [10] stood at 89.8%.
